Test results from patent US20260376293A1, “METHODS FOR STUDYING GPR158 PHARMACOLOGY AND IDENTIFICATION OF ITS LIGANDS” (UNIVERSITY OF FLORIDA RESEARCH FOUNDATION, INCORPORATED, priority 2022, published 2026).

System: GPR158 R173A, E271A, and Y269A mutants
Experiment: GAP BRET assay on GPR158 mutants defective in glycine binding
Assay type: cell-based, human
From the text: FIGS. 11A-11G. Probing Cache domain of GPR158 as a ligand binding site A) Computational docking of glycine into putative ligand binding pocket on GPR158 Cache domain. Glycine and directly interacting residues are shown as sticks. Hydrogen bonds and van der Waals interactions are shown as dotted lines. B) Diagram showing interactions in the docked model of glycine against GPR158 Cache domain. Hydrogen bonds are shown as dashed lines, van der Waals interactions are shown as intersecting semicircles, and the secondary structural context of Ser266 and Tyr269 is shown as an arc. Dagger indicates a residue implicated in glycine binding in 11A. […] Error bars are mean±s.e.m. of 3 independent experiments in triplicate. *p<0.05, **p<0.01, ***p<0.001, ****p<0.0001, ns=p>0.05, two-way ANOVA Columns with no fill (Ctrl), columns with angled-line fill (Glycine) E) Quantification of glycine inhibitory effect on kGAP normalized to the effect seen with WT receptor. […]
Cellular measurements of BRET between Venus-Gβ1γ2 and masGRK3ct-Nluc were performed to examine GAP activity of RGS protein in living cells (described in detail in Masuho et al., 2015 (40)). […] The BRET signal was determined by calculating the ratio of the light emitted by the Venus-Gβ1γ2 (535 nm with a 30 nm band path width) over the light emitted by the masGRK3ct-Nluc (475 nm with a 30 nm band path width). […]

NCC(=O)O [glycine]
glycine inhibition of GAP activity of RGS7/Gβ5: lost an ability to inhibit the GAP-activity of RGS7/Gβ5
